{"source": "patent US20260138976A1", "about": "(Hoffmann-La Roche Inc., priority 2022, published 2026)", "key": {"[1]": {"molecular_target": "T1, DGKζ (hDGKzeta(1-928)-N-His) (Homo sapiens, UniProt Q13574)", "T1 construct": "hDGKzeta(1-928)-N-His; His (N); made in house; host or cells: Sf21 insect cells (baculovirus)", "T1 sequence (Q13574 whole entry)": "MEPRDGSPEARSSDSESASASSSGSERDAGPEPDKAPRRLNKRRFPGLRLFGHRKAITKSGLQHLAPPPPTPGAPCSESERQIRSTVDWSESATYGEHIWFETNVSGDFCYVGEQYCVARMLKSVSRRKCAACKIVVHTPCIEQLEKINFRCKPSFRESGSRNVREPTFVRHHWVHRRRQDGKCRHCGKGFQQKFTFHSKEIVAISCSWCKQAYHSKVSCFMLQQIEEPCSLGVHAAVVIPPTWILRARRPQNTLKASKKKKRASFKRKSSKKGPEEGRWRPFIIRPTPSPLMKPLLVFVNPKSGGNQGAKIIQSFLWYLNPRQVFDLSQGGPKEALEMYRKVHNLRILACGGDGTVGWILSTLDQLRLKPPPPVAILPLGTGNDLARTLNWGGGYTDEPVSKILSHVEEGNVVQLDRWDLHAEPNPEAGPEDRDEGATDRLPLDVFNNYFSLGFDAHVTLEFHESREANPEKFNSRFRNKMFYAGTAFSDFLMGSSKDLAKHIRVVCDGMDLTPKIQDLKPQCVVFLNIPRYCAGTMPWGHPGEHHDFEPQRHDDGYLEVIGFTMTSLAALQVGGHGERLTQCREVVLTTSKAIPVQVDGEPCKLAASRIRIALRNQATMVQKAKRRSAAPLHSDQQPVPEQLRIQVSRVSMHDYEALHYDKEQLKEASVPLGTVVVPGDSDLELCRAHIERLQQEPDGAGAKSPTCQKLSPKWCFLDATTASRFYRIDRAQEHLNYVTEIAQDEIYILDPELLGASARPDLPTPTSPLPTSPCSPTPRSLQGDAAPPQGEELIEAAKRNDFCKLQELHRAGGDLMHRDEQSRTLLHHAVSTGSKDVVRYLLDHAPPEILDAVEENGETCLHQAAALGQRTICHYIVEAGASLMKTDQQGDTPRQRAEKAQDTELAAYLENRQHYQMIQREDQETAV", "assay": "In vitro DGK inhibition assay, DGKzeta ADP Glo (in house)", "type": "biochemical", "settings": "2 nM DGKζ, 50 μM ATP, 125 uM DLG in liposomes, 1 hour reaction", "summary_of_the_method": "(§1)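 Full-length His-tagged human DGKα (4 nM) or DGKζ (2 nM), expressed in Sf21 cells, phosphorylated 125 µM DLG in PS/PC liposomes with ATP at 25 µM (α) or 50 µM (ζ) for 1 h. ADP was measured by ADP-Glo luminescence. Compounds were tested as 11-point 1:3 series in 2% DMSO.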"}, "[2]": {"molecular_target": "T2, DGKα (hDGKalpha(1-735)-N-His) (Homo sapiens, UniProt P23743)", "T2 construct": "hDGKalpha(1-735)-N-His; His (N); made in house; host or cells: Sf21 insect cells (baculovirus)", "T2 sequence (P23743 whole entry)": "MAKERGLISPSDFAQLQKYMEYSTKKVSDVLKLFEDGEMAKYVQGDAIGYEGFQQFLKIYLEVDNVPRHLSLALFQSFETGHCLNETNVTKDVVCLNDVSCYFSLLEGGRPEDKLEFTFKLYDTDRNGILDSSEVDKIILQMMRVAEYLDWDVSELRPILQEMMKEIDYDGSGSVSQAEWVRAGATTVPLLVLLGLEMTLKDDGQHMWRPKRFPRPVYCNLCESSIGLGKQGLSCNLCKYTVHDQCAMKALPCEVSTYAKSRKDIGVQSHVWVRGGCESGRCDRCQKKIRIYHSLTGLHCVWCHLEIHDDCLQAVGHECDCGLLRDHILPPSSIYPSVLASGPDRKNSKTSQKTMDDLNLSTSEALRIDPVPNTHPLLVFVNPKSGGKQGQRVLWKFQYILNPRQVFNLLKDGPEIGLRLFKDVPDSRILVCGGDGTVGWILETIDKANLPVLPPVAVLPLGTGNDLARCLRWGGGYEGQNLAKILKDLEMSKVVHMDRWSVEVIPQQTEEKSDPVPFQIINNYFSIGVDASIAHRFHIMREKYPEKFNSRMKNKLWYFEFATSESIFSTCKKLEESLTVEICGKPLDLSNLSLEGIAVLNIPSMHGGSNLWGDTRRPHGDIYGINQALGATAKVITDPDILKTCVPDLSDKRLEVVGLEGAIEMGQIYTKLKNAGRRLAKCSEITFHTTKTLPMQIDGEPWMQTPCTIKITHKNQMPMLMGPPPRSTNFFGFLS", "assay": "In vitro DGK inhibition assay, DGKalpha ADP Glo (in house)", "type": "biochemical", "settings": "4 nM DGKα, 25 μM ATP, 125 uM DLG in liposomes, 1 hour reaction", "summary_of_the_method": "as §1"}, "[3]": {"test_system": "primary human T-cells", "assay": "IL2 secretion measurements (24 h, CD3-stimulated T-cells, PBS counter screen)", "type": "cell-based", "settings": "for Emax IL2 (% activation): CD3 condition, normalised to DMSO (neutral) and 20 μM reference compound A1 = 100%; for EC50: Homo sapiens, T-cell, CD3-stimulated primary human T-cells, IL2 secretion, fitted sigmoidal curve, read-out: Tcell IL2 CD3 EC50", "summary_of_the_method": "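Expanded primary human T-cells (100k/well) were plated on anti-CD3-coated or PBS-only plates with compound in a 5–6 point dose response (top 20 or 10 μM final, 3.333-fold, 0.2% DMSO). IL-2 in 24 h supernatants was quantified by ProQuantum immunoassay or ELISA. Values were normalized to DMSO and 20 μM reference compound A1 (100%), giving EC50 and Emax.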"}}, "data": [{"smiles": "CC1(c2nnc(-c3ccc4c(c3)N(Cc3ccc(-c5noc(C(F)(F)F)n5)cc3)C(=O)[C@@H](N)CS4(=O)=O)o2)COC1", "note": "[Example 149, (3R)-3-amino-7-[5-(3-methyloxetan-3-yl)-1,3,4-oxadiazol-2-yl]-1,1-dioxo-5-[[4-[5-(trifluoromethyl)-1,2,4-oxadiazol-3-yl]phenyl]methyl]-2,3-dihydro-1λ^6,5-benzothiazepin-4-one]", "values": [{"measurement": "IC50", "setting": "[1]", "value": 4250, "unit": "nM"}, {"measurement": "IC50", "setting": "[2]", "value": "> 62500", "unit": "nM"}, {"measurement": "Emax IL2 (% activation)", "setting": "[3]", "value": 268, "unit": "% activation"}, {"measurement": "EC50", "setting": "[3]", "value": 567, "unit": "nM"}]}, {"smiles": "CC1(c2nnc(-c3ccc4c(c3)N(Cc3ccc(-c5ccc(C(F)(F)F)cn5)cc3)C(=O)[C@@H](N)CS4(=O)=O)o2)COC1", "note": "[Example 150, (3R)-3-amino-7-[5-(3-methyloxetan-3-yl)-1,3,4-oxadiazol-2-yl]-1,1-dioxo-5-[[4-[5-(trifluoromethyl)-2-pyridyl]phenyl]methyl]-2,3-dihydro-1λ^6,5-benzothiazepin-4-one]", "values": [{"measurement": "IC50", "setting": "[1]", "value": 9910, "unit": "nM"}, {"measurement": "IC50", "setting": "[2]", "value": "> 19800", "unit": "nM"}, {"measurement": "Emax IL2 (% activation)", "setting": "[3]", "value": 35, "unit": "% activation"}, {"measurement": "EC50", "setting": "[3]", "value": "> 10000", "unit": "nM"}]}, {"smiles": "C[C@@](N)(c1nnc(-c2ccc3c(c2)N(Cc2ccc(-n4ccc(C(F)(F)F)n4)cc2)C(=O)[C@@H](N)CS3(=O)=O)o1)C(F)(F)F", "note": "[Example 157, (3R)-3-amino-7-[5-[(1R)-1-amino-2,2,2-trifluoro-1-methyl-ethyl]-1,3,4-oxadiazol-2-yl]-1,1-dioxo-5-[[4-[3-(trifluoromethyl)pyrazol-1-yl]phenyl]methyl]-2,3-dihydro-1λ^6,5-benzothiazepin-4-one]", "values": [{"measurement": "IC50", "setting": "[1]", "value": 2280, "unit": "nM"}, {"measurement": "IC50", "setting": "[2]", "value": 41400, "unit": "nM"}, {"measurement": "Emax IL2 (% activation)", "setting": "[3]", "value": 106, "unit": "% activation"}, {"measurement": "EC50", "setting": "[3]", "value": 1780, "unit": "nM"}]}, {"smiles": "COC(=O)N1CC2CC(c3nnc(-c4ccc5c(c4)N(Cc4ccc(-c6ccc(C(F)(F)F)cn6)cc4)C(=O)[C@@H](N)CS5(=O)=O)o3)(C2)C1", "note": "[Example 159, methyl 1-[5-[(3R)-3-amino-1,1,4-trioxo-5-[[4-[5-(trifluoromethyl)-2-pyridyl]phenyl]methyl]-2,3-dihydro-1λ^6,5-benzothiazepin-7-yl]-1,3,4-oxadiazol-2-yl]-3-azabicyclo[3.1.1]heptane-3-carboxylate]", "values": [{"measurement": "IC50", "setting": "[1]", "value": 1350, "unit": "nM"}, {"measurement": "IC50", "setting": "[2]", "value": 1950, "unit": "nM"}, {"measurement": "Emax IL2 (% activation)", "setting": "[3]", "value": 188, "unit": "% activation"}, {"measurement": "EC50", "setting": "[3]", "value": 912, "unit": "nM"}]}, {"smiles": "N[C@H]1CS(=O)(=O)c2ccc(-c3nnc(N4CCC(F)(F)CC4)o3)cc2N(Cc2ccc(-c3nc(C(F)(F)F)no3)cc2)C1=O", "note": "[Example 161, (3R)-3-amino-7-[5-(4,4-difluoro-1-piperidyl)-1,3,4-oxadiazol-2-yl]-1,1-dioxo-5-[[4-[3-(trifluoromethyl)-1,2,4-oxadiazol-5-yl]phenyl]methyl]-2,3-dihydro-1λ^6,5-benzothiazepin-4-one]", "values": [{"measurement": "IC50", "setting": "[1]", "value": 1920, "unit": "nM"}, {"measurement": "IC50", "setting": "[2]", "value": "> 62500", "unit": "nM"}, {"measurement": "Emax IL2 (% activation)", "setting": "[3]", "value": 150, "unit": "% activation"}, {"measurement": "EC50", "setting": "[3]", "value": 3210, "unit": "nM"}]}, {"smiles": "N#CC1CN(c2nnc(-c3ccc4c(c3)N(Cc3ccc(-c5noc(C(F)(F)F)n5)cc3)C(=O)[C@@H](N)CS4(=O)=O)o2)CCO1", "note": "(stereo partly drawn) [Example 163, 4-[5-[(3R)-3-amino-1,1,4-trioxo-5-[[4-[5-(trifluoromethyl)-1,2,4-oxadiazol-3-yl]phenyl]methyl]-2,3-dihydro-1λ^6,5-benzothiazepin-7-yl]-1,3,4-oxadiazol-2-yl]morpholine-2-carbonitrile]", "values": [{"measurement": "IC50", "setting": "[1]", "value": 10600, "unit": "nM"}, {"measurement": "IC50", "setting": "[2]", "value": "> 62500", "unit": "nM"}, {"measurement": "Emax IL2 (% activation)", "setting": "[3]", "value": 152, "unit": "% activation"}, {"measurement": "EC50", "setting": "[3]", "value": 2390, "unit": "nM"}]}, {"smiles": "COCC1CN(c2nnc(-c3ccc4c(c3)N(Cc3ccc(-c5noc(C(F)(F)F)n5)cc3)C(=O)[C@@H](N)CS4(=O)=O)o2)CCO1", "note": "(stereo partly drawn) [Example 164, (3R)-3-amino-7-[5-[2-(methoxymethyl)morpholin-4-yl]-1,3,4-oxadiazol-2-yl]-1,1-dioxo-5-[[4-[5-(trifluoromethyl)-1,2,4-oxadiazol-3-yl]phenyl]methyl]-2,3-dihydro-1λ^6,5-benzothiazepin-4-one]", "values": [{"measurement": "IC50", "setting": "[1]", "value": 2030, "unit": "nM"}, {"measurement": "IC50", "setting": "[2]", "value": "> 62500", "unit": "nM"}, {"measurement": "Emax IL2 (% activation)", "setting": "[3]", "value": 156, "unit": "% activation"}, {"measurement": "EC50", "setting": "[3]", "value": 3300, "unit": "nM"}]}, {"smiles": "CC(C)(c1nnc(-c2ccc3c(c2)N(Cc2ccc(-c4noc(C(F)(F)F)n4)cc2)C(=O)[C@@H](N)CS3(=O)=O)o1)C(F)(F)F", "note": "[Example 166]", "values": [{"measurement": "IC50", "setting": "[1]", "value": 1720, "unit": "nM"}, {"measurement": "IC50", "setting": "[2]", "value": 3030, "unit": "nM"}, {"measurement": "Emax IL2 (% activation)", "setting": "[3]", "value": 385, "unit": "% activation"}, {"measurement": "EC50", "setting": "[3]", "value": 158, "unit": "nM"}]}, {"smiles": "CC(C)(c1nnc(-c2ccc3c(c2)N(Cc2ccc(-c4noc(C5CC5)n4)cc2)C(=O)[C@@H](N)CS3(=O)=O)o1)C(F)(F)F", "note": "[Example 167, (3R)-3-amino-5-[[4-(5-cyclopropyl-1,2,4-oxadiazol-3-yl)phenyl]methyl]-1,1-dioxo-7-[5-(2,2,2-trifluoro-1,1-dimethyl-ethyl)-1,3,4-oxadiazol-2-yl]-2,3-dihydro-1λ^6,5-benzothiazepin-4-one]", "values": [{"measurement": "IC50", "setting": "[1]", "value": 924, "unit": "nM"}, {"measurement": "IC50", "setting": "[2]", "value": "> 62500", "unit": "nM"}, {"measurement": "Emax IL2 (% activation)", "setting": "[3]", "value": 279, "unit": "% activation"}, {"measurement": "EC50", "setting": "[3]", "value": 635, "unit": "nM"}]}, {"smiles": "CCC(O)(c1nnc(-c2ccc3c(c2)N(Cc2ccc(-c4noc(C5CC5)n4)cc2)C(=O)[C@@H](N)CS3(=O)=O)o1)C(F)(F)F", "note": "(stereo partly shown) [Example 169]", "values": [{"measurement": "IC50", "setting": "[1]", "value": 1770, "unit": "nM"}, {"measurement": "IC50", "setting": "[2]", "value": "> 19800", "unit": "nM"}, {"measurement": "Emax IL2 (% activation)", "setting": "[3]", "value": 128, "unit": "% activation"}, {"measurement": "EC50", "setting": "[3]", "value": 3170, "unit": "nM"}]}, {"smiles": "CCN1CC(c2nnc(-c3ccc4c(c3)N(Cc3ccc(-c5noc(C(C)(C)C)n5)cc3)C(=O)[C@@H](N)CS4(=O)=O)o2)CC(F)(F)C1", "note": "(stereo partly drawn) [Example 181, (3R)-3-amino-5-[[4-(5-tert-butyl-1,2,4-oxadiazol-3-yl)phenyl]methyl]-7-[5-(1-ethyl-5,5-difluoro-3-piperidyl)-1,3,4-oxadiazol-2-yl]-1,1-dioxo-2,3-dihydro-1λ^6,5-benzothiazepin-4-one]", "values": [{"measurement": "IC50", "setting": "[1]", "value": 200, "unit": "nM"}, {"measurement": "IC50", "setting": "[2]", "value": "> 62500", "unit": "nM"}, {"measurement": "Emax IL2 (% activation)", "setting": "[3]", "value": 66, "unit": "% activation"}, {"measurement": "EC50", "setting": "[3]", "value": 6890, "unit": "nM"}]}, {"smiles": "COCCN1CC(c2nnc(-c3ccc4c(c3)N(Cc3ccc(-c5noc(C(F)(F)F)n5)cc3)C(=O)[C@@H](N)CS4(=O)=O)o2)CC(F)(F)C1", "note": "(stereo partly drawn) [Example 182, (3R)-3-amino-7-[5-[5,5-difluoro-1-(2-methoxyethyl)-3-piperidyl]-1,3,4-oxadiazol-2-yl]-1,1-dioxo-5-[[4-[5-(trifluoromethyl)-1,2,4-oxadiazol-3-yl]phenyl]methyl]-2,3-dihydro-1λ^6,5-benzothiazepin-4-one]", "values": [{"measurement": "IC50", "setting": "[1]", "value": 2000, "unit": "nM"}, {"measurement": "IC50", "setting": "[2]", "value": "> 62500", "unit": "nM"}, {"measurement": "Emax IL2 (% activation)", "setting": "[3]", "value": 149, "unit": "% activation"}, {"measurement": "EC50", "setting": "[3]", "value": 3260, "unit": "nM"}]}, {"smiles": "COCCN1CC(c2nnc(-c3ccc4c(c3)N(Cc3ccc(-c5ccc(OC)cc5)cc3)C(=O)[C@@H](N)CS4(=O)=O)o2)CC(F)(F)C1", "note": "(stereo partly drawn) [Example 183, (3R)-3-amino-7-[5-[5,5-difluoro-1-(2-methoxyethyl)-3-piperidyl]-1,3,4-oxadiazol-2-yl]-5-[[4-(4-methoxyphenyl)phenyl]methyl]-1,1-dioxo-2,3-dihydro-1λ^6,5-benzothiazepin-4-one]", "values": [{"measurement": "IC50", "setting": "[1]", "value": 970, "unit": "nM"}, {"measurement": "IC50", "setting": "[2]", "value": "> 62500", "unit": "nM"}, {"measurement": "Emax IL2 (% activation)", "setting": "[3]", "value": 69, "unit": "% activation"}, {"measurement": "EC50", "setting": "[3]", "value": 6440, "unit": "nM"}]}]}
